According to ChEMBL document CHEMBL5725708, “Amide derivatives and pharmaceutically acceptable salts thereof, preparation method thereof and medicinal application thereof” (2018):

Target: T1, Prostaglandin E synthase (Homo sapiens, UniProt O14684)
T1 sequence (O14684 whole entry): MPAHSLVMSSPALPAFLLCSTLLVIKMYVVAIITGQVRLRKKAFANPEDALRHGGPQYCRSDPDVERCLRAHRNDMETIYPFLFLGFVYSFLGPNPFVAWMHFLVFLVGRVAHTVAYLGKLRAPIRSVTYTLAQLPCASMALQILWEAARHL
Assay: mPGES1 enzyme assay: mPGES1 was diluted with assay buffer and added into plate at 49 μL/well supplemented with 1 μL of compound (the final concentration of each compound at seven gradient concentrations was 10000 nM, 1000 nM, 100 nM, 10 nM, 1 nM, 0.1 nM and 0.01 nM). Each well was added with 3.8 μL of 20 μg/mL PGH precooled on ice after shaking for 30 seconds and incubated for 7 minutes on ice. Then, each well was added with 53.8 μL of 6 mg/mL SnCl2 to quench the reaction. The sample was diluted with dilute buffer at 1:400. 10 μl of diluted sample, 5 μL PGE2-d2 and 5 μL anti-PGE2 Cryptate were added to a black 384-well plate, and incubated at 4° C. overnight. HTRF was determined using Flexstation, and the IC50 of the compounds was obtained by data processing software.

With CCn1c(-c2ccc(F)cc2)cc2cc(NC(=O)c3cc(CNC(=O)C(C)(C)C)ccc3Br)ccc21 the IC50 was 6.02 nM.
